Experiment [1] relates to quadriceps muscle of mdx mice. Description: Tissue respirometry on quadriceps muscle. It counts as in vivo, mouse. The note with it: weekly prednisone, opposite to daily dosing. The protocol: Tissue respirometry. Whole-tissue analysis of basal rates of oxygen consumption (OCR) and extracellular acidification (ECAR) was conducted adapting reported conditions for intact muscle tissue analysis (Shintaku and Guttridge, 2016) to the XF96 Extracellular Flux Analyzer platform (Agilent, Santa Clara, Calif.). Immediately after mouse sacrification, target muscle (quadriceps) tissues were quickly collected, rinsed in clean PBS buffer and dissected into approximately 2×2×2 mm pieces. At least three biopsies were sampled for each tissue. […] Respirometry analysis was then performed on equilibrated tissue biopsies using the following protocol for each basal or post-injection read: 3 min mix, 5 min delay, 2 min measure. Basal rate reads were collected for 6 consecutive times, then drugs were injected and control reads gathered for additional 3 consecutive times. […] Compound concentrations were determined on literature and/or preliminary test assays on wildtype muscle biopsies, and the concentration of the compound when loaded in the cartridge port was 10× in appropriate solvent (typically DMSO or ddH2O). OCR/ECAR reads were averaged for same tissue replicates and subtracted of background noise values (empty wells with only medium and appropriate compound). […]

The test system of experiment [2] is Klf15, Mef2C, Foxo3 loci in mdx muscle. Description: H3K27ac ChIP-seq on myofibers integrated with RNA-seq of mdx muscle. The experiment is classed as in vivo, mouse. As for the experimental part: H3K27ac ChIP-seq on muscle myofibers. Freshly-isolated whole quadriceps muscles (both per mouse) were finely minced and digested in 10 ml/muscle of PBS supplemented with 1 mM CaCl2 and 100 U/ml collagenase II (Cat #17101, Life Technologies, Grand Island, N.Y.) at 37° C. for 1 hour with shaking. The suspension was then filtered through a 40 μm strainer (Cat #22363547, Fisher Scientific, Waltham, Mass.) and the unfiltered fraction (enriched in myofibers) was kept for further steps. Separation of mononuclear fraction in the filtered fraction was confirmed at the microscope. Myofibers were fixed in 10 ml 1% PFA for 30 minutes at room temperature with gentle nutation. Fixation was quenched 1 ml of 1.375M glycine (Cat #BP381-5, Fisher Scientific, Waltham, Mass.) with gentle nutation for 5 minutes at room temperature. After centrifugation at 3000 g for 5 minutes, myofibers were lysed in 1.4 ml lysis buffer with approximately 25 μl 2.3 mm zirconia/silica beads (Cat #11079125z, BioSpec, Bartlesville, Okla.). Lysis buffer consisted of 10 mM HEPES (pH 7.3; Cat #H3375), 10 mM KCl (Cat #P9541), 5 mM MgCl2 (Cat #M8266), 0.5 mM DTT (Cat #646563), 3 μg/ml cytochalasin B (C6762; all reagents from Sigma, St. Louis, Mo.); protease inhibitor cocktail (Cat #11852700, Roche, Mannheim, Germany)). Myofibers were them homogenized by means of Mini-BeadBeater-16 (Cat #607, Biospec, Bartlesville, Okla.) for 30 sec, then by rotating at 4° C. for 30 minutes. […] DNA was purified using the MinElute purification kit (cat #28004; Qiagen, Hilden, Germany), quantitated using Qubit reader and reagents. Library preparation and sequencing were conducted at the NU Genomics Core, using TrueSeq ChiP-seq library prep (with size exclusion) on 5 ng chromatin per ChIP sample or pooled input, and HiSeq 50 bp single-read sequencing (approximately 60 million read coverage per sample). […]

The subject of another experiment is mdx mice. Description: Dosing of metabolic and endocrine biomarkers in blood, serum and tissues, mdx mice, long-term (40 weeks) weekly prednisone. It counts as in vivo.

On to `C[C@]12C=CC(=O)C=C1CC[C@@H]1[C@@H]2C(=O)C[C@@]2(C)[C@H]1CC[C@]2(O)C(=O)CO` [prednisone, Prednisone], for which, in experiment [1], the glucose-fueled lactate production result is recorded as “improved” and the valine-fueled oxygen consumption entry was “improved”. In addition, in experiment [2] (daily prednisone), the “Foxo3 and other muscle atrophy factors” value is listed as “upregulation”; the “levels of Klf15 and Mef2C” value was “reduced”. For the same molecule, the “H3K27ac marks and transcription of Klf15 and Mef2C” value in experiment [2] (weekly prednisone) is recorded as “increased”. Also, the “ATP, NAD+, and glycogen in muscle and blood lactate” value with mdx mice is “increase”.
